The results in this text go back to patent publication US20250100996A1, “HETEROCYCLOALKYL AND HETEROARYL COMPOUNDS AND PHARMACEUTICAL COMPOSITIONS THAT MODULATE IKZF2” (Plexium, Inc., priority 2021, published 2025).

In assay [1] the target is T1, human E3 ligase component cereblon (CRBN) (Homo sapiens, UniProt Q96SW2).
T1 construct: host or cells: HEK293T
Put plainly: Cereblon (CRBN) target engagement, NanoBRET TE Intracellular E3 Ligase Assay in transfected HEK-293T cells. To be noted: read-out: CRBN Binding EC50. As for the experimental part:
HEK293T cells were harvested ca. 75% confluent with trypsin and plated (500,000 cells/well) in a 6-well tissue culture plate in 2 mL of Dulbecco's Modified Eagle Medium (DMEM)^+10% Fetal Bovine Serum (FBS) and incubated overnight at 37° C.
The NanoLuc-CRBN fusion vector (Nluc-CRBN; Promega) contains the coding region of human E3 ligase component cereblon (CRBN) fused to the C-terminus of the NanoLuc luciferase coding region. A mixture of 10 ng Nluc-CRBN and 990 ng DDB1 Expression Vector (Promega) was added to 125 μL Opti-Minimum Essential Medium (Opti-MEM™; Thermo Fisher) along with […] P3000 reagent (Thermo Fisher) in a 1.5 mL epppendorf tube. This solution was added to Lipofectamine 3000 transfection reagent (5 μL; Thermo Fisher) in Opti-MEM (125 μL), mixed well, and incubated for 15 minutes at room temperature. The transfection mixture was added dropwise to cells and incubated overnight at 37° C., 5% CO2. Following transfection, cells were washed once with PBS, and trypsin (250 μL) was added and incubated 30-45 see to dislodge cells. Complete media (2 mL) was added to resuspend cells to form a single cell suspension. Cells were centrifuged at 320×g for 5 min at room temperature, the supernatant was removed, and the cell pellet resuspended in Opti-MEM (3 mL; wash step repeated ×2). After final resuspension in 5 mL Opti-MEM, cells were counted and resuspended at 200,000 cells/mL in Opti-MEM.
Cereblon target engagement was monitored by Bioluminescence Resonance Energy Transfer (BRET) in transfected HEK-293T cells using the NanoBRET TE Intracellular E3 Ligase Assay (Promega). Briefly, 384-well plates (white opaque plates, Corning 3574, low binding surface) were seeded with transfected HEK-293T cells (38 μL/well). 2 μL of 10 μM CRBN tracer (diluted 1:5 in Tracer Dilution Buffer) was added to each well. Plates were centrifuged at 320×g for 1 min at room temperature. Test compounds were added in a 11-point dilution series (typically 10 μM to 100 pM) using a TECAN D300e Digital Dispenser. Plates were shaken for 2 minutes on a microplate shaker to mix compounds. Plates were centrifuged at 320×g for 1 min at room temperature, and subsequently incubated for 2 hours at 37° C.
After incubation, plates were allowed to cool to room temperature for 15 minutes. 20 μL of 3× Complete NanoBRET™ Nano-Glo® Substrate plus Inhibitor Solution (Promega, 1:166 Substrate and 1:500 dilution of Extracellular NanoLuc® Inhibitor diluted in Opti-MEM) were added to each well. Plates were incubated with shaking at room temperature for 3 minutes covered with foil. Plates were read on a CLARIOstar microplate reader (BMG LabTech), measuring at 450 nm (donor emission) and 610 nm (acceptor emission). The IC50 values were determined by regression to best fit four-parameter logistic curves using GraphPad Prism.

Another assay deals with T2, IKZF2 (Helios) (Homo sapiens, UniProt Q9UKS7).
T2 construct: Leu-Asp junction (codons ctcgac before the linker); mScarlet (behind P2A) (C, cleaved yes); expressed in transfected cells
T2 sequence (Q9UKS7 whole entry): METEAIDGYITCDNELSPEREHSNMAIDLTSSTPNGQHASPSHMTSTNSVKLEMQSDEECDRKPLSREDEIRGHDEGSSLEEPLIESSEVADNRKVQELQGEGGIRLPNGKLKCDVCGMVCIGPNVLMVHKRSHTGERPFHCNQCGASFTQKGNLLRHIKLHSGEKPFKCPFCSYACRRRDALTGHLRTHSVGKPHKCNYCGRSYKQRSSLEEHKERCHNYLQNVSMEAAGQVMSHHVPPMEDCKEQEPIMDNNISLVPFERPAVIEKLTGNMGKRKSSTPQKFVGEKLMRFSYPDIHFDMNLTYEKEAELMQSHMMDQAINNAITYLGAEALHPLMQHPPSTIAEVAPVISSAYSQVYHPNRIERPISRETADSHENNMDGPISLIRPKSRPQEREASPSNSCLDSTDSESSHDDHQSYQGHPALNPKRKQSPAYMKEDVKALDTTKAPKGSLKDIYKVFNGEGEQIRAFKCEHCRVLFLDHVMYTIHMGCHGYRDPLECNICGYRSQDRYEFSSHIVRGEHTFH
T2 sequence (Q96SW2 whole entry, further chain): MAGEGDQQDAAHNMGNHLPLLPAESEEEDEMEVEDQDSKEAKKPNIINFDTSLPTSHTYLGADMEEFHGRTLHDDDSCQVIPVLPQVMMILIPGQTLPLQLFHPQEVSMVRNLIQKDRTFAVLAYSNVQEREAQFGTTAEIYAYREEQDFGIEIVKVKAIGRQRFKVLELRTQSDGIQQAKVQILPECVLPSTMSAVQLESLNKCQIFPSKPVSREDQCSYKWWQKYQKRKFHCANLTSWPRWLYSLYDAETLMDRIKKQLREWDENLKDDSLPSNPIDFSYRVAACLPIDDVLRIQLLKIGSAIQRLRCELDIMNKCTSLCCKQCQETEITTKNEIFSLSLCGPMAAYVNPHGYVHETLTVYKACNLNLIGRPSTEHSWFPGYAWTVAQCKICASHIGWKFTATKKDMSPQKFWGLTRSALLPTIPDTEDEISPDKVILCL
T2 sequence (Q16531 whole entry partner): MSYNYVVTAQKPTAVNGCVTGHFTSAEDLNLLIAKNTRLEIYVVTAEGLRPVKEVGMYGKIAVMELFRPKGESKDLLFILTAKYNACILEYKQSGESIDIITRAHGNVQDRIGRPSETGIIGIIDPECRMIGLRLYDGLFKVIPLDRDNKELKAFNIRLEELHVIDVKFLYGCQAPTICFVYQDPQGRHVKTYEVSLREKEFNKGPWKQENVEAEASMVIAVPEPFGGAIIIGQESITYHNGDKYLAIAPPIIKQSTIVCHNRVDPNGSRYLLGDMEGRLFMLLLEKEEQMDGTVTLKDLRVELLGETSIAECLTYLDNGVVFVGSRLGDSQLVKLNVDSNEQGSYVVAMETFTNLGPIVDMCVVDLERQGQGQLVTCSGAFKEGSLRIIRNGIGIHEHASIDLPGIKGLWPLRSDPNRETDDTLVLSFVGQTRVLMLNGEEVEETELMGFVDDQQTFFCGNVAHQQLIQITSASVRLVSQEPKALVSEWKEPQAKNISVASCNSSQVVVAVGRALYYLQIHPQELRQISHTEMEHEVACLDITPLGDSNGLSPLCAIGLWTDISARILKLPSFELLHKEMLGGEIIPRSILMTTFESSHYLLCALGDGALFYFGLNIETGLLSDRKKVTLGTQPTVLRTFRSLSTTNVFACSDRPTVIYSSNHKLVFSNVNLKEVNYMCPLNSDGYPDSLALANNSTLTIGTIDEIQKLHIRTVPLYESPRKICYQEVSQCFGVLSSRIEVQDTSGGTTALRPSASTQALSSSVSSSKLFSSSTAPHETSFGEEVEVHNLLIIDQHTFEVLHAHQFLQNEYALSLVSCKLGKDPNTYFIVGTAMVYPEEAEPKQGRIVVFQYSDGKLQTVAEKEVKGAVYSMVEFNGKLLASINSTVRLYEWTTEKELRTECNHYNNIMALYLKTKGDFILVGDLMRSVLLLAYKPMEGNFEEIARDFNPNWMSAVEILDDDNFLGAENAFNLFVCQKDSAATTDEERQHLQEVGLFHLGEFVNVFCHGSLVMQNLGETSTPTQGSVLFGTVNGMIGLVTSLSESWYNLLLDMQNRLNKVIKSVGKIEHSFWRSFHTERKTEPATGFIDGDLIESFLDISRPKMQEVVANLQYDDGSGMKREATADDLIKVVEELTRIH
Kind of assay: IKZF2 reporter degradation assay (HEK 293T IKZF2-mNeonGreen reporter cell line). To be noted: HEK 293T IKZF2-mNeonGreen reporter, 24 hours incubation. It is filed as cell-based. An excerpt:
Polycistronic plasmids were constructed for the mammalian expression of fluorescent reporter fusions of human transcription factors IKZF1 (Ikaros), IKZF2 (Helios), and IKZF3 (Aiolos). The respective protein sequences had their C-terminal end joined to a GGGGS linker repeated three times followed by mNeonGreen, P2A sequence, and mScarlet. The DNA sequences of the open reading frames are as follows:
IKZF1, IKZF2, and IKZF3 constructs were cloned into the UCOE Hygromycin expression vectors (Millipore Sigma). Reporter constructs were transfected using cationic lipid reagents into adherent HEK 293T cells and stable integrants were selected by treatment with 200 μg/mL hygromycin B. Clonal populations were obtained from the population of stable integrants either by limiting dilution or fluorescence activated cell sorting.
The clonal stable cell lines were maintained under constant 200 μg/mL hygromycin B selection while being passaged for use in the degradation assays. […] The fluorescence intensity of the IKZF1/2/3-mNeonGreen (FITC channel) and mScarlet (PE channel) reporters were routinely analyzed by flow cytometry to confirm consistent expression levels between experiments.
The IKZF1/IKZF2/IKZF3 degradation assays were carried out by harvesting the HEK 293T reporter cell lines and resuspending the cells in media formulated for reduced background fluorescence (FluoroBrite; Thermo Fisher). The respective cell lines were seeded at a density of 4000 cells/well into black-walled 384-well optical grade assay tissue culture plates. The cells were incubated overnight at 37° C. to allow for attachment to the assay plate. Dilutions of the compounds were prepared in DMSO from 10 mM compound stocks. The assay plates were treated with appropriate concentrations of the compounds by dispensing the DMSO dilutions in quadruplicate wells with an upper limit of 0.5% final DMSO.
After 24 hours incubation with the compounds, the assay plates were imaged on an ImageXpress Pico microscopy system (cells maintained at 37° C. during imaging) to obtain the fluorescent readouts. The assay plates were imaged in the FITC and Tetramethylrhodamine (TRITC) channels to obtain the mNeonGreen fluorescence intensity (reporter degradation data) and mScarlet fluorescence intensity (for cell segmentation). 293T-IKZF1 and 293T-IKZF3 reporter cell lines were imaged with exposures of 500 milliseconds (ms) for both FITC and TRITC channels, while the 293T-IKZF2 reporter cell line was imaged with exposures of 1000 ms for FITC and 1250 ms for TRITC. The resulting data was analyzed with Cell Reporter Xpress software using the 2-channel cell scoring analysis with a “percent positive” readout. The TRITC channel was selected for the “nuclei” segmentation with a threshold of 20 while the FITC channel was selected for the “Marker 1” segmentation and a threshold of 100 for the IKZF1 and IKZF3 reporter lines. […] The minimum segmentation width was set to 6 micrometers and the maximum segmentation width was set to 15 micrometers for all cell lines. The DC50 calculations were determined by regression to best fit four-parameter logistic curves using GraphPad Prism.

pEC50: −log10 of the molar value.

T1 sequence (Q96SW2 whole entry): as the sequence (Q96SW2 whole entry, further chain) above
T1 sequence (Q16531 whole entry partner): as the sequence (Q16531 whole entry partner) above

On to `O=C1CCC(N2Cc3cc(O[C@@H]4CCCC[C@@H]4N4CC(c5ncc(C(F)(F)F)cn5)C4)ccc3C2=O)C(=O)N1` (single isomer, unassigned) [Compound 119-B], for which, in assay [1], the negative-log EC50 (pEC50) was 7.62. For the same compound, the half-maximal degradation concentration (DC50) on IKZF2 (Helios) is greater than 30000 nM. The corresponding values for `O=C1CCC(N2Cc3cc(O[C@@H]4CCCC[C@H]4N4CC(c5ncc(C6CC6)cn5)C4)ccc3C2=O)C(=O)N1` (single isomer, unassigned) [Compound 132-B] are 8.52 and greater than 30000 nM. The corresponding values for `O=C1CCC(N2Cc3cc(O[C@H]4CCCC[C@@H]4N4CC(c5ncc(Br)cn5)C4)ccc3C2=O)C(=O)N1` (single isomer, unassigned) [Compound 107-B] are 7.66 and greater than 30000 nM.

As to `O=C1NC(=O)C2(N3Cc4cc(O[C@H]5CCCC[C@@H]5N5CC(c6ccncc6)C5)ccc4C3=O)CC1C2` (racemic) [Compound 160-B, Rac-1-(1-oxo-5-(((trans)-2-(3-(pyridin-4-yl)azetidin-1-yl)cyclohexyl)oxy)isoindolin-2-yl)-3-azabicyclo[3.1.1]heptane-2,4-dione], in assay [1], the negative-log EC50 (pEC50) is less than 5.00. Regarding `Cc1cnc(C2CN([C@H]3CCCC[C@H]3Oc3ccc4c(c3)CN(C35CC(C3)C(=O)NC5=O)C4=O)C2)o1` (racemic) [Compound 149-B, Rac-1-(5-(((cis)-2-(3-(5-methyloxazol-2-yl)azetidin-1-yl)cyclohexyl)oxy)-1-oxoisoindolin-2-yl)-3-azabicyclo[3.1.1]heptane-2,4-dione], the negative logarithm of the EC50 (pEC50) in assay [1] is less than 5.00. Still for that read-out and setting: then `O=C1NC(=O)C2(N3Cc4cc(OC5CCC[C@@H]5N5CC(c6ncc(Cl)cn6)C5)ccc4C3=O)CC1C2` (mixture of isomers) [Compound 157-B, Rac-1-(5-(((trans)-2-(3-(5-chloropyrimidin-2-yl)azetidin-1-yl)cyclopentyl)oxy)-1-oxoisoindolin-2-yl)-3-azabicyclo[3.1.1]heptane-2,4-dione], with less than 5.00; and `Cc1cnc(C2CN([C@H]3CCCC3Oc3ccc4c(c3)CN(C35CC(C3)C(=O)NC5=O)C4=O)C2)o1` (mixture of isomers) [Compound 145-B, Rac-1-(5-(((trans)-2-(3-(5-methyloxazol-2-yl)azetidin-1-yl)cyclopentyl)oxy)-1-oxoisoindolin-2-y1)-3-azabicyclo[3.1.1]heptane-2,4-dione], with less than 5.00; and `Cc1cnc(C2CN([C@H]3CCCC[C@@H]3Oc3ccc4c(c3)CN(C35CC(C3)C(=O)NC5=O)C4=O)C2)o1` (racemic) [Compound 150-B, Rac-1-(5-(((trans)-2-(3-(5-methyloxazol-2-yl)azetidin-1-yl)cyclohexyl)oxy)-1-oxoisoindolin-2-yl)-3-azabicyclo[3.1.1]heptane-2,4-dione], with less than 5.00. Take `O=C1CCC(N2Cc3cc(O[C@H]4CCCC[C@H]4N4CC(c5ncc(C(F)(F)F)cn5)C4)ccc3C2=O)C(=O)N1` (single isomer, unassigned) [Compound 121-B]: the pEC50 in assay [1] was 8.30. At IKZF2 (Helios), this compound registered a DC50 greater than 30000 nM.

For the compound `O=C1CCC(N2Cc3cc(O[C@@H]4CCCC[C@@H]4N4CC(c5ccncc5Cl)C4)ccc3C2=O)C(=O)N1` (single isomer, unassigned) [Compound 96-B], the negative logarithm of the EC50 (pEC50) in assay [1] was 7.52. This compound also came in with a DC50 on IKZF2 (Helios) greater than 30000 nM.

Take `O=C1CCC(N2Cc3cc(O[C@@H]4CCCC[C@H]4N4CC(c5ncc(C6CC6)cn5)C4)ccc3C2=O)C(=O)N1` (single isomer, unassigned) [Compound 133-B]: the negative-log EC50 (pEC50) in assay [1] was 8.00. Further, at IKZF2 (Helios), the DC50 was greater than 30000 nM.

Consider `O=C1CCC(N2Cc3cc(O[C@@H]4CCCC[C@@H]4N4CC(c5ncc(C(F)(F)F)cn5)C4)ccc3C2=O)C(=O)N1` (single isomer, unassigned) [Compound 118-B], for which, in assay [1], the pEC50 is 8.40. The compound also registered a half-maximal degradation concentration (DC50) on IKZF2 (Helios) greater than 30000 nM. The matching figures for `O=C1CCC(N2Cc3cc(O[C@@H]4CCCC[C@@H]4N4CC(c5cncc(Cl)c5)C4)ccc3C2=O)C(=O)N1` (stereo partly drawn) [Compound 105-B, 3-(5-(((1R,2S)-2-(3-(5-chloropyridin-3-yl)azetidin-1-yl)cyclohexyl)oxy)-1-oxoisoindolin-2-yl)piperidine-2,6-dione]: 7.54 and greater than 30000 nM. The corresponding values for `O=C1CCC(N2Cc3cc(O[C@H]4CCCC[C@H]4N4CC(c5ncc(C(F)(F)F)cn5)C4)ccc3C2=O)C(=O)N1` (single isomer, unassigned) [Compound 122-B] are 7.89 and greater than 30000 nM. As to `O=C1NC(=O)C2(N3Cc4cc(O[C@@H]5CCCC[C@@H]5N5CC(c6ccncc6)C5)ccc4C3=O)CC1C2` (racemic) [Compound 159-B, Rac-1-(1-oxo-5-(((cis)-2-(3-(pyridin-4-yl)azetidin-1-yl)cyclohexyl)oxy)isoindolin-2-yl)-3-azabicyclo[3.1.1]heptane-2,4-dione], the negative-log EC50 (pEC50) in assay [1] was less than 5.00. Consider `O=C1CCC(N2Cc3cc(O[C@H]4CCCC[C@H]4N4CC(c5ccc(Cl)cn5)C4)ccc3C2=O)C(=O)N1` (single isomer, unassigned) [Compound 97-B], for which the pEC50 in assay [1] is 7.96. Besides, the DC50 at IKZF2 (Helios) is greater than 30000 nM. Take `O=C1CCC(N2Cc3cc(OC4CCCC4N4CC(c5ncc(F)cn5)C4)ccc3C2=O)C(=O)N1` (centres unmarked) [Compound 158-B, 3-(5-((2-(3-(5-fluoropyrimidin-2-yl)azetidin-1-yl)cyclopentyl)oxy)-1-oxoisoindolin-2-yl)piperidine-2,6-dione]: the pEC50 in assay [1] is 7.06.

Turning to `Cc1cnc(C2CN([C@H]3CCCC3Oc3ccc4c(c3)CN(C35CC(C3)C(=O)NC5=O)C4=O)C2)o1` (mixture of isomers) [Compound 144-B, Rac-1-(5-(((cis)-2-(3-(5-methyloxazol-2-yl)azetidin-1-yl)cyclopentyl)oxy)-1-oxoisoindolin-2-yl)-3-azabicyclo[3.1.1]heptane-2,4-dione], the pEC50 in assay [1] was less than 5.00. On the same count and under the same terms, then `O=C1NC(=O)C2(N3Cc4cc(OC5CCC[C@@H]5N5CC(c6ncc(Cl)cn6)C5)ccc4C3=O)CC1C2` (mixture of isomers) [Compound 156-B, Rac-1-(5-(((cis)-2-(3-(5-chloropyrimidin-2-yl)azetidin-1-yl)cyclopentyl)oxy)-1-oxoisoindolin-2-yl)-3-azabicyclo[3.1.1]heptane-2,4-dione], with less than 5.00.
